The results in this text go back to ChEMBL document CHEMBL1201862, “PubChem BioAssay data set” (2004).

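Exposure lasted 48 hours, with cells grown in 96-well plates and compounds tested at five concentrations. GI50 = concentration required for 50% inhibition of growth.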 The source made the active and inactive calls. Rule as the data show it: active = GI50 up to about 1.1 µM and inactive = higher.

Some test systems named below: HOP-62; SF-539; NCI-H460; Hs-578T; Malme-3M; CAKI-1; RPMI-8226; OVCAR-4; HCT-116; SNB-19; 786-0; A549; UACC-257; HCT-15; M14; PC-3; OVCAR-5; IGROV-1; HT-29.
What all share (test): DTP human tumour cell line panel, 48 h

As for `CN(C)c1ccc(/C=N/c2nc3cc4sc(/N=C/c5ccc(N(C)C)cc5)nc4cc3s2)cc1`, the GI50 was 55.7 µM (inactive) with HOP-62; > 100 µM (inactive) in the experiment with SF-539; 5.4 µM (inactive) in the experiment on NCI-H460; 18.1 µM (inactive) in the experiment on Hs-578T; > 100 µM (inactive) in the experiment with Malme-3M; 21.3 µM (inactive) with CAKI-1. Moreover, the GI50 in the experiment with RPMI-8226 is 19.1 µM (inactive); in the experiment with OVCAR-4, > 100 µM (inactive); in the experiment with HCT-116 it was 30.5 µM (inactive); with SNB-19, 77.6 µM (inactive); in the experiment with 786-0, 49.7 µM (inactive); in the experiment on A549 it was 12.8 µM (inactive). Further, the GI50 in the experiment on UACC-257 is > 100 µM (inactive); in the experiment with HCT-15, above 100 µM; in the experiment with M14, > 100 µM (inactive); in the experiment on PC-3, > 100 µM (inactive); in the experiment on OVCAR-5, > 100 µM (inactive); in the experiment with IGROV-1, > 100 µM (inactive). Moreover, the GI50 in the experiment with HT-29 is 34.1 µM (inactive).

For `Cn1c(=O)oc2cc(C(=S)N3CCC(Cc4ccccc4)CC3)ccc21`, the GI50 in the experiment on HOP-62, in the experiment with SF-539, with NCI-H460, in the experiment on Hs-578T, with Malme-3M and in the experiment on CAKI-1 was > 100 µM (inactive) throughout. Further, the GI50 with RPMI-8226 is 62.1 µM (inactive); in the experiment with HCT-116 it was > 100 µM (inactive); in the experiment on SNB-19, > 100 µM (inactive); in the experiment on 786-0, > 100 µM (inactive); in the experiment on UACC-257 it was > 100 µM (inactive); with HCT-15, above 100 µM. Moreover, the GI50 with M14, with PC-3, in the experiment with OVCAR-5, with IGROV-1 and in the experiment on HT-29 was > 100 µM (inactive) throughout.

Take `CCOC(=O)c1nc2ccc(C(F)(F)F)cc2nc1Nc1ccc(F)cc1`: the GI50 in the experiment on HOP-62 was 58.9 µM (inactive); in the experiment on SF-539, 57.5 µM (inactive); in the experiment on NCI-H460, 28.9 µM (inactive); in the experiment with Hs-578T, 21.9 µM (inactive); in the experiment on Malme-3M, > 100 µM (inactive); with CAKI-1, > 100 µM (inactive). In addition, the GI50 in the experiment on OVCAR-4 is > 100 µM (inactive); with HCT-116, > 100 µM (inactive); in the experiment on SNB-19, 43.9 µM (inactive); in the experiment on 786-0, 45.3 µM (inactive); in the experiment with A549, 28.8 µM (inactive); in the experiment with UACC-257, > 100 µM (inactive). Besides, the GI50 was above 100 µM in the experiment with HCT-15; > 100 µM (inactive) in the experiment on M14; > 100 µM (inactive) in the experiment on PC-3; > 100 µM (inactive) in the experiment with OVCAR-5; 87.7 µM (inactive) in the experiment on IGROV-1; > 100 µM (inactive) with HT-29.

As for `C[C@@H](Oc1ccc(Oc2cnc3ccc(Cl)cc3n2)cc1)C(=O)O` [R(+)XK469], the GI50 in the experiment with HOP-62 was 72.8 µM (inactive); with SF-539, > 100 µM (inactive); in the experiment on NCI-H460, 11.2 µM (inactive); with Hs-578T, 60.1 µM (inactive); with Malme-3M, > 100 µM (inactive); with CAKI-1, > 100 µM (inactive). Further, the GI50 is > 100 µM (inactive) in the experiment with OVCAR-4; 94.2 µM (inactive) in the experiment with HCT-116; > 100 µM (inactive) with SNB-19; > 100 µM (inactive) with 786-0; 55.5 µM (inactive) in the experiment with A549; > 100 µM (inactive) in the experiment on UACC-257. Also, the GI50 with HCT-15 was above 100 µM; with M14, > 100 µM (inactive); in the experiment on PC-3, > 100 µM (inactive); with OVCAR-5 it was > 100 µM (inactive); in the experiment on IGROV-1, 83 µM (inactive); in the experiment on HT-29 it was > 100 µM (inactive).
